Like-named read-outs stand apart in the source and are kept apart here.
Conditions: for Blood, % Dose in Whole Organ / Blood, % dose / 1 % body weight / Bone Ave, % Dose/1 % Body weight / Femur, % dose / 1 % body weight / Kidneys, % Dose in Whole Organ / Kidneys, % dose / 1 % body weight / Liver, % Dose in Whole Organ / Liver, % dose / 1 % body weight / Marrow, % Dose in Whole Organ / Marrow, % dose / 1 % body weight / Muscle, % Dose in Whole Organ / Muscle, % dose / 1 % body weight / Pelvis, % dose / 1 % body weight / Spine, % dose / 1 % body weight / Tibia, % dose / 1 % body weight / Urine, % Dose / W. Femur, % Dose in Whole Organ / W. Tibia, % Dose in Whole Organ: 2 Hrs; for Ratio 99mTc/85Sr, Ave Bone / Ratio 99mTc/85Sr, Blood / Ratio 99mTc/85Sr, Femur / Ratio 99mTc/85Sr, Kidneys / Ratio 99mTc/85Sr, Liver / Ratio 99mTc/85Sr, Marrow / Ratio 99mTc/85Sr, Muscle / Ratio 99mTc/85Sr, Pelvis / Ratio 99mTc/85Sr, Spine / Ratio 99mTc/85Sr, Tibia: 2 hours

99m technetium-tin-1-amino-ethane-1,1-diphosphonate [99mTc-Sn-AEDP]
Blood, % Dose in Whole Organ (AEDP 0.01 mg/kg): 1.18 % Dose | Blood, % dose / 1 % body weight (AEDP 0.01 mg/kg): 0.168 % Dose/1 % Body weight | Bone Ave, % Dose/1 % Body weight (AEDP 0.01 mg/kg): 7.60 % Dose/1 % Body weight | Femur, % dose / 1 % body weight (AEDP 0.01 mg/kg): 7.54 % Dose/1 % Body weight | Kidneys, % Dose in Whole Organ (AEDP 0.01 mg/kg): 1.59 % Dose | Kidneys, % dose / 1 % body weight (AEDP 0.01 mg/kg): 2.72 % Dose/1 % Body weight | Liver, % Dose in Whole Organ (AEDP 0.01 mg/kg): 1.69 % Dose | Liver, % dose / 1 % body weight (AEDP 0.01 mg/kg): 0.617 % Dose/1 % Body weight | Marrow, % Dose in Whole Organ (AEDP 0.01 mg/kg): 0.657 % Dose | Marrow, % dose / 1 % body weight (AEDP 0.01 mg/kg): 0.300 % Dose/1 % Body weight | Muscle, % Dose in Whole Organ (AEDP 0.01 mg/kg): 0.988 % Dose | Muscle, % dose / 1 % body weight (AEDP 0.01 mg/kg): 0.037 % Dose/1 % Body weight | Pelvis, % dose / 1 % body weight (AEDP 0.01 mg/kg): 8.53 % Dose/1 % Body weight | Spine, % dose / 1 % body weight (AEDP 0.01 mg/kg): 6.20 % Dose/1 % Body weight | Tibia, % dose / 1 % body weight (AEDP 0.01 mg/kg): 8.13 % Dose/1 % Body weight | Urine, % Dose (AEDP 0.01 mg/kg): 48.39 % Dose | W. Femur, % Dose in Whole Organ (AEDP 0.01 mg/kg): 2.34 % Dose | W. Tibia, % Dose in Whole Organ (AEDP 0.01 mg/kg): 1.96 % Dose | Blood, % Dose in Whole Organ (AEDP 0.05 mg/kg): 1.01 % Dose | Blood, % dose / 1 % body weight (AEDP 0.05 mg/kg): 0.144 % Dose/1 % Body weight | Bone Ave, % Dose/1 % Body weight (AEDP 0.05 mg/kg): 8.39 % Dose/1 % Body weight | Femur, % dose / 1 % body weight (AEDP 0.05 mg/kg): 8.63 % Dose/1 % Body weight | Kidneys, % Dose in Whole Organ (AEDP 0.05 mg/kg): 1.13 % Dose | Kidneys, % dose / 1 % body weight (AEDP 0.05 mg/kg): 1.83 % Dose/1 % Body weight | Liver, % Dose in Whole Organ (AEDP 0.05 mg/kg): 0.806 % Dose | Liver, % dose / 1 % body weight (AEDP 0.05 mg/kg): 0.176 % Dose/1 % Body weight | Marrow, % Dose in Whole Organ (AEDP 0.05 mg/kg): 0.549 % Dose | Marrow, % dose / 1 % body weight (AEDP 0.05 mg/kg): 0.250 % Dose/1 % Body weight | Muscle, % Dose in Whole Organ (AEDP 0.05 mg/kg): 1.20 % Dose | Muscle, % dose / 1 % body weight (AEDP 0.05 mg/kg): 0.028 % Dose/1 % Body weight | Pelvis, % dose / 1 % body weight (AEDP 0.05 mg/kg): 7.82 % Dose/1 % Body weight | Spine, % dose / 1 % body weight (AEDP 0.05 mg/kg): 7.80 % Dose/1 % Body weight | Tibia, % dose / 1 % body weight (AEDP 0.05 mg/kg): 9.30 % Dose/1 % Body weight | Urine, % Dose (AEDP 0.05 mg/kg): 44.21 % Dose | W. Femur, % Dose in Whole Organ (AEDP 0.05 mg/kg): 2.41 % Dose | W. Tibia, % Dose in Whole Organ (AEDP 0.05 mg/kg): 2.14 % Dose | Blood, % Dose in Whole Organ (AEDP 0.1 mg/kg): 0.96 % Dose | Blood, % dose / 1 % body weight (AEDP 0.1 mg/kg): 0.137 % Dose/1 % Body weight | Bone Ave, % Dose/1 % Body weight (AEDP 0.1 mg/kg): 7.51 % Dose/1 % Body weight | Femur, % dose / 1 % body weight (AEDP 0.1 mg/kg): 7.93 % Dose/1 % Body weight | Kidneys, % Dose in Whole Organ (AEDP 0.1 mg/kg): 0.913 % Dose | Kidneys, % dose / 1 % body weight (AEDP 0.1 mg/kg): 1.28 % Dose/1 % Body weight | Liver, % Dose in Whole Organ (AEDP 0.1 mg/kg): 0.309 % Dose | Liver, % dose / 1 % body weight (AEDP 0.1 mg/kg): 0.083 % Dose/1 % Body weight | Marrow, % Dose in Whole Organ (AEDP 0.1 mg/kg): 0.211 % Dose | Marrow, % dose / 1 % body weight (AEDP 0.1 mg/kg): 0.096 % Dose/1 % Body weight | Muscle, % Dose in Whole Organ (AEDP 0.1 mg/kg): 1.46 % Dose | Muscle, % dose / 1 % body weight (AEDP 0.1 mg/kg): 0.034 % Dose/1 % Body weight | Pelvis, % dose / 1 % body weight (AEDP 0.1 mg/kg): 6.24 % Dose/1 % Body weight | Spine, % dose / 1 % body weight (AEDP 0.1 mg/kg): 7.36 % Dose/1 % Body weight | Tibia, % dose / 1 % body weight (AEDP 0.1 mg/kg): 8.50 % Dose/1 % Body weight | Urine, % Dose (AEDP 0.1 mg/kg): 38.8 % Dose | W. Femur, % Dose in Whole Organ (AEDP 0.1 mg/kg): 2.38 % Dose | W. Tibia, % Dose in Whole Organ (AEDP 0.1 mg/kg): 2.18 % Dose | Blood, % Dose in Whole Organ (AEDP 0.5 mg/kg): 1.38 % Dose | Blood, % dose / 1 % body weight (AEDP 0.5 mg/kg): 0.197 % Dose/1 % Body weight | Bone Ave, % Dose/1 % Body weight (AEDP 0.5 mg/kg): 6.96 % Dose/1 % Body weight | Femur, % dose / 1 % body weight (AEDP 0.5 mg/kg): 6.59 % Dose/1 % Body weight | Kidneys, % Dose in Whole Organ (AEDP 0.5 mg/kg): 1.11 % Dose | Kidneys, % dose / 1 % body weight (AEDP 0.5 mg/kg): 2.11 % Dose/1 % Body weight | Liver, % Dose in Whole Organ (AEDP 0.5 mg/kg): 0.216 % Dose | Liver, % dose / 1 % body weight (AEDP 0.5 mg/kg): 0.079 % Dose/1 % Body weight | Marrow, % Dose in Whole Organ (AEDP 0.5 mg/kg): 0.23 % Dose | Marrow, % dose / 1 % body weight (AEDP 0.5 mg/kg): 0.104 % Dose/1 % Body weight | Muscle, % Dose in Whole Organ (AEDP 0.5 mg/kg): 0.883 % Dose | Muscle, % dose / 1 % body weight (AEDP 0.5 mg/kg): 0.021 % Dose/1 % Body weight | Pelvis, % dose / 1 % body weight (AEDP 0.5 mg/kg): 7.93 % Dose/1 % Body weight | Spine, % dose / 1 % body weight (AEDP 0.5 mg/kg): 6.05 % Dose/1 % Body weight | Tibia, % dose / 1 % body weight (AEDP 0.5 mg/kg): 7.27 % Dose/1 % Body weight | Urine, % Dose (AEDP 0.5 mg/kg): 48.85 % Dose | W. Femur, % Dose in Whole Organ (AEDP 0.5 mg/kg): 1.74 % Dose | W. Tibia, % Dose in Whole Organ (AEDP 0.5 mg/kg): 1.55 % Dose | Ratio 99mTc/85Sr, Ave Bone (0.01 mg/kg): 0.735 | Ratio 99mTc/85Sr, Blood (0.01 mg/kg): 0.406 | Ratio 99mTc/85Sr, Femur (0.01 mg/kg): 0.720 | Ratio 99mTc/85Sr, Kidneys (0.01 mg/kg): 4.99 | Ratio 99mTc/85Sr, Liver (0.01 mg/kg): 3.00 | Ratio 99mTc/85Sr, Marrow (0.01 mg/kg): 1.27 | Ratio 99mTc/85Sr, Muscle (0.01 mg/kg): 0.338 | Ratio 99mTc/85Sr, Pelvis (0.01 mg/kg): 0.794 | Ratio 99mTc/85Sr, Spine (0.01 mg/kg): 0.689 | Ratio 99mTc/85Sr, Tibia (0.01 mg/kg): 0.710 | Ratio 99mTc/85Sr, Ave Bone (0.05 mg/kg): 0.683 | Ratio 99mTc/85Sr, Blood (0.05 mg/kg): 0.409 | Ratio 99mTc/85Sr, Femur (0.05 mg/kg): 0.687 | Ratio 99mTc/85Sr, Kidneys (0.05 mg/kg): 3.30 | Ratio 99mTc/85Sr, Liver (0.05 mg/kg): 1.32 | Ratio 99mTc/85Sr, Marrow (0.05 mg/kg): 1.18 | Ratio 99mTc/85Sr, Muscle (0.05 mg/kg): 0.236 | Ratio 99mTc/85Sr, Pelvis (0.05 mg/kg): 0.684 | Ratio 99mTc/85Sr, Spine (0.05 mg/kg): 0.675 | Ratio 99mTc/85Sr, Tibia (0.05 mg/kg): 0.681 | Ratio 99mTc/85Sr, Ave Bone (0.1 mg/kg): 0.716 | Ratio 99mTc/85Sr, Blood (0.1 mg/kg): 0.409 | Ratio 99mTc/85Sr, Femur (0.1 mg/kg): 0.714 | Ratio 99mTc/85Sr, Kidneys (0.1 mg/kg): 2.94 | Ratio 99mTc/85Sr, Liver (0.1 mg/kg): 0.490 | Ratio 99mTc/85Sr, Marrow (0.1 mg/kg): 0.621 | Ratio 99mTc/85Sr, Muscle (0.1 mg/kg): 0.205 | Ratio 99mTc/85Sr, Pelvis (0.1 mg/kg): 0.725 | Ratio 99mTc/85Sr, Spine (0.1 mg/kg): 0.705 | Ratio 99mTc/85Sr, Tibia (0.1 mg/kg): 0.721 | Ratio 99mTc/85Sr, Ave Bone (0.5 mg/kg): 0.644 | Ratio 99mTc/85Sr, Blood (0.5 mg/kg): 0.280 | Ratio 99mTc/85Sr, Femur (0.5 mg/kg): 0.628 | Ratio 99mTc/85Sr, Kidneys (0.5 mg/kg): 2.47 | Ratio 99mTc/85Sr, Liver (0.5 mg/kg): 0.459 | Ratio 99mTc/85Sr, Marrow (0.5 mg/kg): 0.500 | Ratio 99mTc/85Sr, Muscle (0.5 mg/kg): 0.140 | Ratio 99mTc/85Sr, Pelvis (0.5 mg/kg): 0.692 | Ratio 99mTc/85Sr, Spine (0.5 mg/kg): 0.614 | Ratio 99mTc/85Sr, Tibia (0.5 mg/kg): 0.632

Reference: patent US3989730A, “Bone-seeking technetium-99m complex” (priority 1973, dated 1976)
